From patent US10100030B2 (Kissei Pharmaceutical Co., Ltd., priority 2013, dated 2018)

Key:
human NK1 receptor = human NK1 receptor (Homo sapiens (Human), UniProt P25103); test: Inhibitory effect on human NK1 receptor (substance P-induced increase in intracellular calcium concentration); type: cell-based; details: HEK-293T; substance P 1 μM, compound 0.1 μM; human NK1 receptor-expressing 293T cells; read-out: SPRR (Substance P-Response Remaining)
Experimental: Inhibitory Effect on Human NK1 Receptor
(1) Preparation of Human NK1 Receptor-expressing Cells
Human NK1 receptor-expressing cells were prepared by the same methods as those described in 2-3 and 2-4 of Test Example 1.
(2) Study on Inhibitory Effect on Increase in Intracellular Calcium Concentration
The human NK1 receptor-expressing cells were washed with 300 μL/well of a washing solution (20 mM HEPES/Hank's Balanced Salt Solution (HBSS) […]). A fluorescent calcium indicator (Fluo-4 Direct Calcium Assay Kit, Life Technologies, containing 0.42 mM probenecid and 0.1% bovine serum albumin, prepared according to the protocol of the product) was added to the wells at 150 μL/well, and the plate was incubated at 37° C. for 30 minutes in an incubator. Then, DMSO solutions of a test compound, which were prepared at an 80-time higher concentration using 100% dimethyl sulfoxide (DMSO), were added to the wells at 2.5 μL/well (final concentrations of 0.1, 1 and 10 μM), and the solutions were mixed. Then, the plate was further incubated at 37° C. for 30 minutes in an incubator. After 30 minutes, the intracellular calcium concentrations were measured immediately.
The intracellular calcium concentrations were each measured as a fluorescent signal using FDSS (registered trademark) 7000 (Hamamatsu Photonics). A substance P (Peptide Institute, Inc.) solution which was prepared at 0.4 μM or 4 μM using an assay buffer (20 mM HEPES/Hank's Balanced Salt Solution (HBSS) pH 7.3, containing 0.1% bovine serum albumin) was added automatically to each well at 50 μL/well (final concentration of 0.1 or 1 μM) 10 seconds after starting reading, and the fluorescent signal was measured up to 120 seconds.
The intracellular calcium concentration (%) of the cells to which a test compound was added was calculated by the equation below, where the fluorescent signal of the group to which the vehicle (DMSO) was added was regarded as 100%, and the fluorescent signal before the addition of substance P was regarded as 0%. Intracellular calcium concentration(%)=(Fluorescent signal of test compound addition group)/(Fluorescent signal of vehicle addition group)×100
The intracellular calcium concentration (%) calculated was regarded as the remaining agonist activity of substance P (Substance P-Response Remaining: SPRR). In the table, Ex. No. means the Example number. SPRR (%) is the value obtained when the concentration of substance P was 1 μM and the concentration of the compound was 0.1 μM.

[1] = Measurement of drug concentrations in the brain after foot-tapping test; type: in vivo; details: male; 0.3 mg/kg iv, after foot-tapping was finished, gerbil brain; read-out: Conc. (drug concentration in the brain)
Experimental: A male gerbil (Japan SLC) was anesthetized with isoflurane, and 0.3 mg/kg of a test compound was administered from the jugular vein. After four hours, GR73632 (5 pmol/5 μl), which is an NK1 receptor agonist, was administered into the cerebral ventricle at the part 1 mm lateral to and 4.5 mm below the bregma in the head, under anesthesia with isoflurane. After the administration, the gerbil was moved to an observation cage, and the foot-tapping period during five minutes after the recovery of the righting reflex was measured. The foot-tapping inhibition rate (%) of each test compound was calculated by the following equation. Foot-tapping inhibition rate (%)={1−(Foot-tapping period when test compound was administered)/(Foot-tapping period when solvent was administered)}×100 (2) Measurement of Drug Concentrations
After foot-tapping was finished, laparotomy was performed immediately under anesthesia with ether, and a blood sample was taken from the abdominal vena cava. At the same time, the brain was extracted. Through a quantitative analysis using liquid chromatography-mass spectrometry (LC/MS), the concentrations of the test compound in the plasma and the brain were measured.
In the table, Ex. No. means the Example number. Inhibition (%) is the foot-tapping inhibition rate, and Conc. (nM) is the drug concentration in the brain.

[2] = system: cisplatin-induced acute and delayed emetic response; test: Effect on cisplatin-induced acute and delayed emetic response; type: in vivo, ferret
Experimental: No 1, 1 mg/kg, po) in the acute phase, and a value of control group, the group intravenously administered with 3 mg/kg of the compound of Example 1 (Ex. […] No 1, 1 mg/kg, po) in the delayed phase from the left respectively. The vertical axes show the number of retching and vomiting ([…]) (the mean+standard error of 5 examples of control group, the mean+standard error of 5 examples of the group intravenously administered, and the mean+standard error of 5 examples of the group orally administered). Effect on Cisplatin-induced Acute and Delayed Emetic Response The test compound solution was prepared by dissolving the test compound in a vehicle (a mixture of 50% N,N-dimethylformamide (Wako Pure Chemical Industries), 30% propylene glycol (Wako Pure Chemical Industries) and 4% 2-hydroxypropyl-β-cyclodextrin (Wako Pure Chemical Industries)). The vehicle only was administered to the control group. Under anesthesia with isoflurane, 3 mg/kg of the test compound was intravenously administered to a male ferret (Marshall BioResources Japan) from the jugular vein. Cisplatin, which was heated to 40-50° C., was intraperitoneally administered at 5 mg/kg one hour after the drug administration. […] The solvent only was administered to the control group. The test compound was orally administered to a male ferret (Marshall BioResources Japan). The oral administration was performed every 24 hours at 1 mg/kg three times in total. Cisplatin, which was heated to 40-50° C., was intraperitoneally administered at 5 mg/kg one hour after the first oral administration of the test compound.

hERG channel = hERG channel (Homo sapiens (Human), UniProt Q12809); test: Evaluation of hERG current (whole-cell patch clamp); type: cell-based; details: 10 μM, application for 10 minutes, n = 3, average ± standard error
Experimental: Evaluation of hERG Current
The hERG current was measured by a whole-cell method using a patch clamp system, where a cover glass on which hERG channel-expressing human embryonic kidney (HEK) 293 cells were seeded was placed on a perfusion bath and a perfusion solution was caused to flow. The change in the hERG channel-derived current caused by a pulse protocol (holding potential of −80 mV, depolarization pulse of +20 mV for 1.9 seconds, repolarization pulse of −50 mV for 2 seconds, stimulated at intervals of 15 seconds) of data acquisition/analysis software, pCLAMP9 (Axon Instruments, Inc.), was measured. The measurement conditions were a flow rate of about 1.5 mL/min and a temperature of about 33° C. Two wave forms just before applying the test compound and two wave forms immediately after the application for 10 minutes were analyzed, and the statistical analysis was performed. The value before the application of the test compound was regarded as 100%, and the change rate based on the value was determined.
In the table. Ex. No. means the Example number, and the value is the average±the standard error.

CYP3A4 = CYP3A4 (Homo sapiens (Human), UniProt P08684); test: Inhibitory effect on CYP3A4 (Luciferin-IPA); details: read-out: IC50 (CYP3A4 inhibition); 30-minute pre-incubation group
Sequence of CYP3A4 (P08684 whole entry): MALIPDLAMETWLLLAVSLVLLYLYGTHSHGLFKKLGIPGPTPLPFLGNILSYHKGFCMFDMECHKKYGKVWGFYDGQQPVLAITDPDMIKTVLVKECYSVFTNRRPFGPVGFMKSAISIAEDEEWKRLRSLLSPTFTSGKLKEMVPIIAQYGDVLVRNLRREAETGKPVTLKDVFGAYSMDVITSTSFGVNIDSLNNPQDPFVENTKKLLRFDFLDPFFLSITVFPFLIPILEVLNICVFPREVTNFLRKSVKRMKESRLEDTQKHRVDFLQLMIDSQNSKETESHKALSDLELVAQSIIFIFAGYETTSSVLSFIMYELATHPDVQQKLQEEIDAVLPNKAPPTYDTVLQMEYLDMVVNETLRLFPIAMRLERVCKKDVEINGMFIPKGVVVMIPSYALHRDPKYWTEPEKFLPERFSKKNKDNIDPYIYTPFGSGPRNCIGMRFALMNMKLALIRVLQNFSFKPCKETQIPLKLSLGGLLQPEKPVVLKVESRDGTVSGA
Experimental: Enzyme reaction was performed by incubating in a potassium phosphate buffer solution (pH 7.4) containing 1 nM to 20 μM test compound, 3.2 mM magnesium chloride, 0.2 pmol human CYP3A4 (BD Biosciences), 0.5 mM reduced nicotinamide adenine dinucleotide phosphate (NADPH) and 3 μM Luciferin-IPA (Promega) at 37° C. for 10 minutes. The volume of the reaction solution was 50 μL/well. The 30-minute pre-incubation group was incubated at 37° C. for 30 minutes before adding the substrate, the Luciferin-IPA solution (12.5 μL/well). At the end of the enzyme reaction, 50 μL/well of a Luciferin detection reagent (Promega) was added to the wells, and the plate was left at room temperature for 20 minutes. Then, the emission intensities were measured with Infinite M1000 (TECAN). The enzyme activities (%) relative to the value of the group to which the test compound was not added were calculated.

Sequence of human NK1 receptor (P25103 whole entry): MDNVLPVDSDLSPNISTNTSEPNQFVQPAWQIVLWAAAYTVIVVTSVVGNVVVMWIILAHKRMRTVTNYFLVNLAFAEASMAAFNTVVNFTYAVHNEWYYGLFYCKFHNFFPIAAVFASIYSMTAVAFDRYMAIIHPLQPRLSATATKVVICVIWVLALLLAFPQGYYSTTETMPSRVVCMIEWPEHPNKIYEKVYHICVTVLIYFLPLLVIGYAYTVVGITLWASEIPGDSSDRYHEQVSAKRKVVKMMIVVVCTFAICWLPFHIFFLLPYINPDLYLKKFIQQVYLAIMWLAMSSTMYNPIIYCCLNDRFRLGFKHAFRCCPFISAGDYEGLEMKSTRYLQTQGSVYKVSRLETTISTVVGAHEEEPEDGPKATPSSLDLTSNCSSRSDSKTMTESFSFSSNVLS
Sequence of hERG channel (Q12809 whole entry): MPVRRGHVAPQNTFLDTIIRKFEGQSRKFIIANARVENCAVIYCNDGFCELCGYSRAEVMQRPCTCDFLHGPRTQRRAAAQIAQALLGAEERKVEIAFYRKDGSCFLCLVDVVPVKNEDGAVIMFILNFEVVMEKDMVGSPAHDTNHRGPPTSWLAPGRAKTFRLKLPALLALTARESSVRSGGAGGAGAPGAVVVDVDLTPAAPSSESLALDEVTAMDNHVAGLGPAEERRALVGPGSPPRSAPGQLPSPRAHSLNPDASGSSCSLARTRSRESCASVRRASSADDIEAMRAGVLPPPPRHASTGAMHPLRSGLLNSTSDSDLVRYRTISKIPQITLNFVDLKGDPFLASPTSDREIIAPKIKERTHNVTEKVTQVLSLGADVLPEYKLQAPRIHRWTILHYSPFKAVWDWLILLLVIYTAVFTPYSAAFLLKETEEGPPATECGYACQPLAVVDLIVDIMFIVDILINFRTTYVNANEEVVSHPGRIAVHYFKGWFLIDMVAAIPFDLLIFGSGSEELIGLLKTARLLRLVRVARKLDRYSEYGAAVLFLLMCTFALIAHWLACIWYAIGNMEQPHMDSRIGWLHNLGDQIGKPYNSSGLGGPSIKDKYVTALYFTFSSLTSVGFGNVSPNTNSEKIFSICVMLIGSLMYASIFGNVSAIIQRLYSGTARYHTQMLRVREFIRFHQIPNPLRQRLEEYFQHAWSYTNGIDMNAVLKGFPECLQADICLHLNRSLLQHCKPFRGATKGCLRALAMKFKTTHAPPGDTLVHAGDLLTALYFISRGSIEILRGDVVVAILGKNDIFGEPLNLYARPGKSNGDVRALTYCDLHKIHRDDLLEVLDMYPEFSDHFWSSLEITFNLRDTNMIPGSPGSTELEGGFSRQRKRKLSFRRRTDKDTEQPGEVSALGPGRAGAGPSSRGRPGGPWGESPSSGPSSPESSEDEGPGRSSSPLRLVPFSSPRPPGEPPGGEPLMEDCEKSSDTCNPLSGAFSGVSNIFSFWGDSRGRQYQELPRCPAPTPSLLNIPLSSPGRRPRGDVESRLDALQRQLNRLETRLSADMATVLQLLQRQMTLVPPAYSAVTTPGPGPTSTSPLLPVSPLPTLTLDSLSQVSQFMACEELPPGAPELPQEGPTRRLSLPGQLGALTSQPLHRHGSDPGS

Question: Which remaining activity at 0.1 µM (human NK1 receptor) does the source give for `Cc1cc(F)ccc1-c1cc(N2CCC(CC(=O)O)CC2)ncc1N(C)C(=O)C(C)(C)c1cc(C(F)(F)F)cc(C(F)(F)F)c1` [Example 1] here?
Answer: 28%

Question: What about the concentration at 4 h [1] of the same compound?
Answer: 275 nM

Question: What about the “number of retching and vomiting” value ([2]; 1 mg/kg po every 24 hours three times, acute phase (up to 24 hours after cisplatin)) of the same compound?
Answer: inhibition of the number of retching and vomiting was observed

Question: What about the “number of retching and vomiting” value ([2]; 1 mg/kg po every 24 hours three times, delayed phase (24 to 72 hours after cisplatin)) of the same compound?
Answer: inhibition of the number of retching and vomiting was observed

Question: And the “number of retching and vomiting” value ([2]; 3 mg/kg iv, acute phase (up to 24 hours after cisplatin))?
Answer: inhibition of the number of retching and vomiting was observed

Question: And the “number of retching and vomiting” value ([2]; 3 mg/kg iv, delayed phase (24 to 72 hours after cisplatin))?
Answer: inhibition of the number of retching and vomiting was observed

Question: And the “hERG current, % of value before application” value (hERG channel)?
Answer: 93.9 ± 2.7%

Question: What about the IC50 (CYP3A4) of the same compound?
Answer: 6.2 µM
